Literature values in patent US20030180373A1, “Method for viral inactivation of hydro-alcoholic solutions” (priority 2000, published 2003).

Tested on: viruses of Norwalk and Norwalk type
Conditions: disinfectants conventionally used; ethanol at a concentration of 75%

Structure (SMILES)	Effect of the disinfectant on the virus
[Na+].[O-]Cl [bleach]	capable of destroying the virus
CCO [ethanol]	no effect
O=CCCCC=O [glutaraldehyde]	capable of destroying the virus
